This is an account of results in US20220087970A1, “PREVENTION OF ANESTHETIC-INDUCED NEUROCOGNITIVE DYSFUNCTION” (The Johns Hopkins University, priority 2019, published 2022).

In series [1] the test system is neuron cultures. The experiment in a line: Neuron cultures, synapses (PSD95/Synaptophysin puncta) at DIV14. The class given is cell-based. Particulars: isoflurane exposure at DIV7, stained at DIV14. How it is done:
Neuron cultures were transfected with GFP-AAV virus at DIV-4 and were exposed to NO donor (DETA) 150 μM and sGC inhibitor (ODQ) 100 μM for 4 hrs right before exposure to gases at DIV7. Cells were returned back to incubator with half media change every second day. At DIV14, cells were fixed and stained with PSD95 and Synaptophysin. […] Scale bar is 5 μm. FIG. 23B: Synapse were analyzed using puncta analyzer plugin as shown in methods section.

On the set-up of series [2]: species or system mice. Particulars: mouse, in vivo. How it is done: PND7 control and experimental mice were placed in a clear plastic cone and body temperature maintained by a heating blanket set to 35° C. Heart rate (HR) and oxyhemoglobin saturation (SpO2) were continuously monitored using pulse-oximetry (PhysioSuite, Kent Scientific). Arterial blood was collected by terminal cardiac puncture of the left ventricle from sentinels and pH (pHa) determined using a blood gas machine (ABL800 FLEX Series Radiometer). […] Naïve control animals were left with the dams. Control ‘CON’ animals were exposed to oxygen only. Anesthesia was initiated with 2.4% isoflurane in oxygen for 2 min and tapered down to 1.5% within 15 min. Exposure to 1.5% isoflurane was continued for 3 hours and 45 min (total 4 hours ISO). At the end of the exposure animals were maintained in oxygen on the heating blanket for 10 min then returned to dams. […] Tao and Johns, 2008. Purification of fusion peptides was performed by Creative BioMart (Shirley, N.Y.) and verified by Coomassie blue staining and Western blot analysis and then stored in 10% glycerol/phosphate-buffered saline at −80° C. until use. The Tat-PSD-95 PDZ2WT and MUT plasmids used to generate proteins containing an amino-terminal, in-frame, 11-amino-acid, minimal transduction domain (residues 47-57 of human immunodeficiency virus Tat protein) termed Tat. […] Fang et al., 2003. The NO donor Molsidomine [(N-[ethoxycarbonyl]-3-[4-morpholinosydnomine] (Sigma, St. Louis, Mo.) was injected at 4 mg/kg into mice ip in 100 μL sterile saline as previously described. Control animals were injected ip with the vehicle (saline).

Series [3] deals with caspase-3. The experiment in a line: Western blot for cleaved caspase-3 (apoptosis) after PND7 exposure. Format: in vivo. To be noted: PND7 mice, 4 h treatment (1.5% ISO in 100% O2 or peptide 8 mg/kg ip), 2 h following cessation of exposure. The procedure:
1.3.2 Anesthesia, Peptide, and Molsidomine Injections. PND7 control and experimental mice were placed in a clear plastic cone and body temperature maintained by a heating blanket set to 35° C. Vital signs and physiological monitoring were assessed using PhysioSuite® (Kent Scientific Corporation, Torrington, Conn., USA) and blood gasses were collected arterially. […] Note that lower concentrations of 02 can be used, e.g., between 20% to 100% 02, including 20%, 25%, 30%, 35%, 40%, 45%, 50%, 55%, 60%, 65%, 70%, 75%, 80%, 85%, 90%, 95%, 96%, 97%, 98%, 99%, and 100% 02. Naïve animals were left with the dams. Anesthesia was initiated with 2.4% ISO in 100% oxygen for 2 min and tapered down to 1.5% within 15 min. Exposure to 1.5% ISO was continued for 3 hours and 45 min (total 4 hours ISO). Control ‘CON’ animals were exposed to 100% oxygen only. At the end of the exposure animals were maintained in oxygen on the heating blanket for 10 min then returned to dams. […] Tao and Johns, 2008. A single injection of peptide was given ip. Separate peptide cohorts were injected in parallel with mice undergoing exposure to anesthesia or O2 control. […]
1.3.3 Western Blotting. […] Proteins were detected by enhanced chemiluminescence (Amersham, Piscataway, N.J.). […]
(Immunoblotting shows a protein as a band on a membrane.)

The test system of series [4] is SAP102. The experiment in a line: Western blot of hippocampal synaptic fractions: SAP102. The class given is in vivo. Particulars: one day after PND7 mice exposed to isoflurane (1.5% ISO in O2, 4 h). How it is done: One day after PND7 mice were exposed to isoflurane (1.5% ISO in O2, 4 h), we harvested hippocampal tissues for Western blotting to assess the expression of receptors and MAGUKs. […] (N=9). A *p<0.05 was considered significant. […] Data shown as % actin;

As to `FC(F)OC(Cl)C(F)(F)F` (racemic) [ISO, (RS)-2-chloro-2-(difluoromethoxy)-1,1,1-trifluoroethane], the “synapses at DIV14 after exposure” value in series [1] is “loss of synapse”. Also, in series [2], the “arterial blood pH (pHa)” value amounted to 7.26±0.05, the “heart rate (HR)” value stood at 611±84 and the “oxyhemoglobin saturation (SpO2)” value is 93±6. For the same compound, the “cleaved caspase-3 (Western blot)” value in series [3] is given as “did not yield any detectable cleaved caspase”. The “amount of SAP102 in synaptic fractions” value in series [4] is recorded as “significant increase”.
